Test results: patent US10919896B2, “Preparation and uses of pyrimidinone derivatives” (Cancer Research Technology Limited, priority 2016, dated 2021)
Where a name gives a salt, the structure may show the parent alone.

How the values were obtained:
Cdc7/Dbf4 = Cdc7/Dbf4 (Homo sapiens, UniProt O00311); assay: Cdc7 Biochemical Assay Method 3: Cdc7/Dbf4 Enzyme TR-FRET Assay measuring pS40MCM2; details: 1 μM ATP, read-out: Biochemical Method 3 (pIC50) (converted)
Procedure, shortened: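 2.5 nM Cdc7/Dbf4 incubated with 100 nM biotinylated MCM2-derived peptide and 1 μM ATP, 120 minutes at 25° C. Phospho-S40 detected by TR-FRET using anti-pS40 Mcm2 antibody, terbium anti-rabbit secondary and streptavidin-Alexa Fluor488.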

[1] = system: Cdc7 (pS40MCM2 levels in HCT116 cells); assay: Cdc7 Cell Pharmacodynamics Assay Method 2A: pS40MCM2 levels in HCT116 cells, 6 hours; format: cell-based; details: Homo sapiens, HCT-116, read-out: Biomarker Method 2A (pEC50) (converted)
Procedure, shortened: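 HCT116 cells seeded at 20,000/well, settled overnight, then treated with compound (1:400 dilution from compound plate) for 6 h (Method 2A) or 18 h (Method 2B) at 37° C. Lysates captured on total-MCM2 antibody plates; pS40 MCM2 detected with rabbit anti-pMCM2 Ser40, HRP secondary and chemiluminescent substrate.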

Cdc7/Dbf4, sequence (O00311 whole entry): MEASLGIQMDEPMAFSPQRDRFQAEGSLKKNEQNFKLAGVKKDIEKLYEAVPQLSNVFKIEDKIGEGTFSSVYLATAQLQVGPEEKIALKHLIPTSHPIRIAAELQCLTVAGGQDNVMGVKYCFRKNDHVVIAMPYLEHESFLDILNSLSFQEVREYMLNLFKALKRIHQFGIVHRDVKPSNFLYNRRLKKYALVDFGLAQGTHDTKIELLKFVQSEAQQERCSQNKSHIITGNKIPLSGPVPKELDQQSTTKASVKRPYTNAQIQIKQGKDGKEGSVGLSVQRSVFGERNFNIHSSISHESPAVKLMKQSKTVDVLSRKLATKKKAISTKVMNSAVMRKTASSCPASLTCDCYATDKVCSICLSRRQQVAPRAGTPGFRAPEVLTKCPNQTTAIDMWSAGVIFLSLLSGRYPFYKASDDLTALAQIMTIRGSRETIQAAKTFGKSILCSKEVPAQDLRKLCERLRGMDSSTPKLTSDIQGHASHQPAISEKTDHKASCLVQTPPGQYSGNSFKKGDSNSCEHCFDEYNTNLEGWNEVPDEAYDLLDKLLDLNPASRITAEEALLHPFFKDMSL
Cdc7/Dbf4, sequence (Q9UBU7 whole entry partner): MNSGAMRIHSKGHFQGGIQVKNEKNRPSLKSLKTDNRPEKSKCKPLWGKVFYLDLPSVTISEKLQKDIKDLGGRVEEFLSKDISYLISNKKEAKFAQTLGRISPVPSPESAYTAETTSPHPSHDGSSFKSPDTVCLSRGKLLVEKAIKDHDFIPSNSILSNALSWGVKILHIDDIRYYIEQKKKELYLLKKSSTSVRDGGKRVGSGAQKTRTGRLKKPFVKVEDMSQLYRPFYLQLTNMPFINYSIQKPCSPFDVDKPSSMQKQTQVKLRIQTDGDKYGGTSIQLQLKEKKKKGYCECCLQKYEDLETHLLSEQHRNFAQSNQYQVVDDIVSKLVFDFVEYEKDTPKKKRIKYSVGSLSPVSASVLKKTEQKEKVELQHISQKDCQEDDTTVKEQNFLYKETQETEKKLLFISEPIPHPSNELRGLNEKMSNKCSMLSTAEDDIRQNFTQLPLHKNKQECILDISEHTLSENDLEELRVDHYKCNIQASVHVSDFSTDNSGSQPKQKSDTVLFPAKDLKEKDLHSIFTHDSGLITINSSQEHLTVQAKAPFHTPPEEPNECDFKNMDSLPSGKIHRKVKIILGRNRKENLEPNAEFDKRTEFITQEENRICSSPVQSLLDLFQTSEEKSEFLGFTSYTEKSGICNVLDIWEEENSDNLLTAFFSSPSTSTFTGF

An IC50 (Cdc7/Dbf4) of 1.41 nM and an EC50 [1] of 26.9 nM were found for `C[C@@H]1CNCCN1c1nc(-c2ccncc2)[nH]c(=O)c1Cl` [Compound 364] in this work.

An IC50 (Cdc7/Dbf4) of 0.525 nM and an EC50 [1] of 44.7 nM were found for `O=c1[nH]c(-c2ccnc(F)c2)nc(N2CCOCC2)c1Cl` [Compound 316] in this work.

An IC50 (Cdc7/Dbf4) of 0.676 nM and an EC50 [1] of 219 nM were found for `N[C@H]1CCCN(c2nc(-c3ccnc(F)c3)[nH]c(=O)c2Cl)C1` [Compound 317] in this work.

An IC50 (Cdc7/Dbf4) of 2.34 nM and an EC50 [1] of 776 nM were found for `C[C@H]1CN(c2nc(-c3ccncc3)[nH]c(=O)c2Cl)CCN1` [Compound 130] in this work.

An IC50 (Cdc7/Dbf4) of 4.07 nM and an EC50 [1] of 851 nM were found for `O=c1[nH]c(-c2ccncc2)nc(N2CCN[C@H](C(F)(F)F)C2)c1Cl` [Compound 139] in this work.

An IC50 (Cdc7/Dbf4) of 0.871 nM and an EC50 [1] of 83.2 nM were found for `O=c1[nH]c(-c2ccnc(F)c2)nc(N2CCNCC2)c1Cl` [Compound 360] in this work.

An IC50 (Cdc7/Dbf4) of 0.537 nM and an EC50 [1] of 12 nM were found for `C[C@@H]1CNCCN1c1nc(-c2ccnc(F)c2)[nH]c(=O)c1Cl` [Compound 323] in this work.

An IC50 (Cdc7/Dbf4) of 0.355 nM was found for `O=c1[nH]c(-c2ccnc(F)c2)nc(N2CCCC(F)(F)C2)c1Cl` [Compound 90, 5-chloro-4-(3,3-difluoro-1-piperidyl)-2-(2-fluoro-4-pyridyl)-1H-pyrimidin-6-one] in this work.

An IC50 (Cdc7/Dbf4) of 1.38 nM and an EC50 [1] of 37.2 nM were found for `O=c1[nH]c(-c2ccncc2)nc(N2CCN[C@@H](C(F)(F)F)C2)c1Cl` [Compound 180] in this work.

An IC50 (Cdc7/Dbf4) of 0.589 nM and an EC50 [1] of 11.5 nM were found for `O=c1[nH]c(-c2ccnc(F)c2)nc(N2CCNCC(F)(F)C2)c1Cl` [Compound 312, 5-chloro-4-(6,6-difluoro-1,4-diazepan-1-yl)-2-(2-fluoro-4-pyridyl)-1H-pyrimidin-6-one hydrochloride] in this work.

An IC50 (Cdc7/Dbf4) of 0.933 nM and an EC50 [1] of 126 nM were found for `N[C@@H]1CCCN(c2nc(-c3ccnc(F)c3)[nH]c(=O)c2Cl)C1` [Compound 319] in this work.

An IC50 (Cdc7/Dbf4) of 0.724 nM and an EC50 [1] of 85.1 nM were found for `CC(C)(C)[C@H]1CN(c2nc(-c3ccncc3)[nH]c(=O)c2F)CCN1` [Compound 185] in this work.

An IC50 (Cdc7/Dbf4) of 1.55 nM and an EC50 [1] of 427 nM were found for `O=c1[nH]c(-c2ccncc2)nc(N2CCN(CC(F)F)CC2)c1Cl` [Compound 147] in this work.

An IC50 (Cdc7/Dbf4) of 1.05 nM and an EC50 [1] of 21.9 nM were found for `CC(C)[C@H]1CN(c2nc(-c3ccnc(F)c3)[nH]c(=O)c2Cl)CCN1` [Compound 170] in this work.
